Test results as given in patent US20230266302A1, “SYNTHESIS AND USE OF N-BENZYL SULFONAMIDES” (THE UNIVERSITY OF TULSA, priority 2020, published 2023).

test system: BxPC3 (pancreatic cancer); assay: ATP level assay (CellTiter-Glo), percent of control; type: cell-based; settings: Homo sapiens, BXPC-3, 2 h; compound alone, 100 uM, two hour incubation, control DMSO; read-out: POC (percent of control) BxPC3

How did the activity at 100 µM turn out when `COc1ncccc1CNS(=O)(=O)c1ccccc1` [Compound 13, N-[(2-methoxypyridin-3-yl)methyl]benzenesulfonamide] was run?
The activity at 100 µM was 91.2%.

same assay, conditions: compound 100 uM + 2DG (about 10-20 mM), two hour incubation

How did the “POC (percent of control) BxPC3” value turn out when `COc1ncccc1CNS(=O)(=O)c1ccccc1` [Compound 13, N-[(2-methoxypyridin-3-yl)methyl]benzenesulfonamide] was run?
The value was 74.1% of control.

same assay, conditions: compound 100 uM + rotenone (approximately 1.25 μM), two hour incubation

For `COc1ncccc1CNS(=O)(=O)c1ccccc1` [Compound 13, N-[(2-methoxypyridin-3-yl)methyl]benzenesulfonamide], which “POC (percent of control) BxPC3” value is on record?
Its value is 55.3% of control.

test system: H293 (kidney cancer); assay: as above; type: cell-based; settings: 2 h; compound alone, 100 uM, two hour incubation, control DMSO; read-out: POC (percent of control) H293

Which activity at 100 µM does the source give for `COc1ncccc1CNS(=O)(=O)c1ccccc1` [Compound 13, N-[(2-methoxypyridin-3-yl)methyl]benzenesulfonamide] here?
Its activity at 100 µM is 101%.

same assay, conditions: compound 100 uM + 2DG (about 10-20 mM), two hour incubation

With `COc1ncccc1CNS(=O)(=O)c1ccccc1` [Compound 13, N-[(2-methoxypyridin-3-yl)methyl]benzenesulfonamide] as the molecule, how does the “POC (percent of control) H293” value read?
Its value is 69.4% of control.

same assay, conditions: compound 100 uM + rotenone (approximately 1.25 μM), two hour incubation

Which “POC (percent of control) H293” value does the source give for `COc1ncccc1CNS(=O)(=O)c1ccccc1` [Compound 13, N-[(2-methoxypyridin-3-yl)methyl]benzenesulfonamide] here?
The value was 81.1% of control.

test system: HDF (normal cells); assay: as above; type: cell-based; settings: 2 h; compound alone, 100 uM, two hour incubation, control DMSO; read-out: POC (percent of control) HDF

For `COc1ncccc1CNS(=O)(=O)c1ccccc1` [Compound 13, N-[(2-methoxypyridin-3-yl)methyl]benzenesulfonamide], which activity at 100 µM is on record?
Its activity at 100 µM is 96.5%.

same assay, conditions: compound 100 uM + 2DG (about 10-20 mM), two hour incubation

Which “POC (percent of control) HDF” value does the source give for `COc1ncccc1CNS(=O)(=O)c1ccccc1` [Compound 13, N-[(2-methoxypyridin-3-yl)methyl]benzenesulfonamide] here?
The value was 104.2% of control.

same assay, conditions: compound 100 uM + rotenone (approximately 1.25 μM), two hour incubation

How did the “POC (percent of control) HDF” value turn out when `COc1ncccc1CNS(=O)(=O)c1ccccc1` [Compound 13, N-[(2-methoxypyridin-3-yl)methyl]benzenesulfonamide] was run?
The value was 98.3% of control.

test system: HeLa (cervical cancer); assay: as above; type: cell-based; settings: Homo sapiens, HeLa, 2 h; compound alone, 100 uM, two hour incubation, control DMSO; read-out: POC (percent of control) HeLa

How did the activity at 100 µM turn out when `COc1ncccc1CNS(=O)(=O)c1ccccc1` [Compound 13, N-[(2-methoxypyridin-3-yl)methyl]benzenesulfonamide] was run?
The activity at 100 µM was 94.6%.

same assay, conditions: compound 100 uM + 2DG (about 10-20 mM), two hour incubation

`COc1ncccc1CNS(=O)(=O)c1ccccc1` [Compound 13, N-[(2-methoxypyridin-3-yl)methyl]benzenesulfonamide] was tested. Which “POC (percent of control) HeLa” value did it give?
Its value is 90.7% of control.

same assay, conditions: compound 100 uM + rotenone (approximately 1.25 μM), two hour incubation

How did the “POC (percent of control) HeLa” value turn out when `COc1ncccc1CNS(=O)(=O)c1ccccc1` [Compound 13, N-[(2-methoxypyridin-3-yl)methyl]benzenesulfonamide] was run?
The value was 94.1% of control.

test system: MCF10A (non-cancerous breast); assay: as above; type: cell-based; settings: Homo sapiens, MCF-10A, 2 h; compound alone, 100 uM, two hour incubation, control DMSO; read-out: POC (percent of control) MCF10A

`COc1ncccc1CNS(=O)(=O)c1ccccc1` [Compound 13, N-[(2-methoxypyridin-3-yl)methyl]benzenesulfonamide] was tested. Which activity at 100 µM did it give?
The activity at 100 µM was 94.8%.

same assay, conditions: compound 100 uM + 2DG (about 10-20 mM), two hour incubation

How did the “POC (percent of control) MCF10A” value turn out when `COc1ncccc1CNS(=O)(=O)c1ccccc1` [Compound 13, N-[(2-methoxypyridin-3-yl)methyl]benzenesulfonamide] was run?
Its value is 96.1% of control.

same assay, conditions: compound 100 uM + rotenone (approximately 1.25 μM), two hour incubation

For `COc1ncccc1CNS(=O)(=O)c1ccccc1` [Compound 13, N-[(2-methoxypyridin-3-yl)methyl]benzenesulfonamide], which “POC (percent of control) MCF10A” value is on record?
The value was 84% of control.

test system: MCF7 (breast cancer); assay: as above; type: cell-based; settings: Homo sapiens, MCF7, 2 h; compound alone, 100 uM, two hour incubation, control DMSO; read-out: POC (percent of control) MCF7

`COc1ncccc1CNS(=O)(=O)c1ccccc1` [Compound 13, N-[(2-methoxypyridin-3-yl)methyl]benzenesulfonamide] was tested. Which activity at 100 µM did it give?
Its activity at 100 µM is 127%.

same assay, conditions: compound 100 uM + 2DG (about 10-20 mM), two hour incubation

With `COc1ncccc1CNS(=O)(=O)c1ccccc1` [Compound 13, N-[(2-methoxypyridin-3-yl)methyl]benzenesulfonamide] as the molecule, how does the “POC (percent of control) MCF7” value read?
Its value is 89.7% of control.

same assay, conditions: compound 100 uM + rotenone (approximately 1.25 μM), two hour incubation

Which “POC (percent of control) MCF7” value does the source give for `COc1ncccc1CNS(=O)(=O)c1ccccc1` [Compound 13, N-[(2-methoxypyridin-3-yl)methyl]benzenesulfonamide] here?
The value was 116.5% of control.

test system: MDA-MB (breast cancer); assay: as above; type: cell-based; settings: 2 h; compound alone, 100 uM, two hour incubation, control DMSO; read-out: POC (percent of control) MDA-MB

How did the activity at 100 µM turn out when `COc1ncccc1CNS(=O)(=O)c1ccccc1` [Compound 13, N-[(2-methoxypyridin-3-yl)methyl]benzenesulfonamide] was run?
The activity at 100 µM was 101%.

same assay, conditions: compound 100 uM + 2DG (about 10-20 mM), two hour incubation

How did the “POC (percent of control) MDA-MB” value turn out when `COc1ncccc1CNS(=O)(=O)c1ccccc1` [Compound 13, N-[(2-methoxypyridin-3-yl)methyl]benzenesulfonamide] was run?
Its value is 81.9% of control.

same assay, conditions: compound 100 uM + rotenone (approximately 1.25 μM), two hour incubation

For `COc1ncccc1CNS(=O)(=O)c1ccccc1` [Compound 13, N-[(2-methoxypyridin-3-yl)methyl]benzenesulfonamide], which “POC (percent of control) MDA-MB” value is on record?
Its value is 103.8% of control.

test system: NCI-H196 (lung cancer); assay: as above; type: cell-based; settings: NCI-H196, 2 h; compound alone, 100 uM, two hour incubation, control DMSO; read-out: POC (percent of control) NCI-H196

Which activity at 100 µM does the source give for `COc1ncccc1CNS(=O)(=O)c1ccccc1` [Compound 13, N-[(2-methoxypyridin-3-yl)methyl]benzenesulfonamide] here?
The activity at 100 µM was 87.6%.

same assay, conditions: compound 100 uM + 2DG (about 10-20 mM), two hour incubation

With `COc1ncccc1CNS(=O)(=O)c1ccccc1` [Compound 13, N-[(2-methoxypyridin-3-yl)methyl]benzenesulfonamide] as the molecule, how does the “POC (percent of control) NCI-H196” value read?
Its value is 127.4% of control.

same assay, conditions: compound 100 uM + rotenone (approximately 1.25 μM), two hour incubation

`COc1ncccc1CNS(=O)(=O)c1ccccc1` [Compound 13, N-[(2-methoxypyridin-3-yl)methyl]benzenesulfonamide] was tested. Which “POC (percent of control) NCI-H196” value did it give?
The value was 99.7% of control.

test system: PC3 (prostate cancer); assay: as above; type: cell-based; settings: 2 h; compound alone, 100 uM, two hour incubation, control DMSO; read-out: POC (percent of control) PC3

Which activity at 100 µM does the source give for `COc1ncccc1CNS(=O)(=O)c1ccccc1` [Compound 13, N-[(2-methoxypyridin-3-yl)methyl]benzenesulfonamide] here?
Its activity at 100 µM is 82.2%.

same assay, conditions: compound 100 uM + 2DG (about 10-20 mM), two hour incubation

`COc1ncccc1CNS(=O)(=O)c1ccccc1` [Compound 13, N-[(2-methoxypyridin-3-yl)methyl]benzenesulfonamide] was tested. Which “POC (percent of control) PC3” value did it give?
Its value is 97.3% of control.

same assay, conditions: compound 100 uM + rotenone (approximately 1.25 μM), two hour incubation

`COc1ncccc1CNS(=O)(=O)c1ccccc1` [Compound 13, N-[(2-methoxypyridin-3-yl)methyl]benzenesulfonamide] was tested. Which “POC (percent of control) PC3” value did it give?
Its value is 101.2% of control.

test system: SkBr3 (breast cancer); assay: as above; type: cell-based; settings: Homo sapiens, SK-BR-3, 2 h; compound alone, 100 uM, two hour incubation, control DMSO; read-out: POC (percent of control) SkBr3

For `COc1ncccc1CNS(=O)(=O)c1ccccc1` [Compound 13, N-[(2-methoxypyridin-3-yl)methyl]benzenesulfonamide], which activity at 100 µM is on record?
Its activity at 100 µM is 101%.

same assay, conditions: compound 100 uM + 2DG (about 10-20 mM), two hour incubation

For `COc1ncccc1CNS(=O)(=O)c1ccccc1` [Compound 13, N-[(2-methoxypyridin-3-yl)methyl]benzenesulfonamide], which “POC (percent of control) SkBr3” value is on record?
Its value is 87.2% of control.

same assay, conditions: compound 100 uM + rotenone (approximately 1.25 μM), two hour incubation

Which “POC (percent of control) SkBr3” value does the source give for `COc1ncccc1CNS(=O)(=O)c1ccccc1` [Compound 13, N-[(2-methoxypyridin-3-yl)methyl]benzenesulfonamide] here?
Its value is 96.5% of control.

test system: T47D (breast cancer); assay: as above; type: cell-based; settings: Homo sapiens, T47D, 2 h; compound alone, 100 uM, two hour incubation, control DMSO; read-out: POC (percent of control) T47D

`COc1ncccc1CNS(=O)(=O)c1ccccc1` [Compound 13, N-[(2-methoxypyridin-3-yl)methyl]benzenesulfonamide] was tested. Which activity at 100 µM did it give?
Its activity at 100 µM is 84.3%.

same assay, conditions: compound 100 uM + 2DG (about 10-20 mM), two hour incubation

With `COc1ncccc1CNS(=O)(=O)c1ccccc1` [Compound 13, N-[(2-methoxypyridin-3-yl)methyl]benzenesulfonamide] as the molecule, how does the “POC (percent of control) T47D” value read?
The value was 88.8% of control.

same assay, conditions: compound 100 uM + rotenone (approximately 1.25 μM), two hour incubation

Which “POC (percent of control) T47D” value does the source give for `COc1ncccc1CNS(=O)(=O)c1ccccc1` [Compound 13, N-[(2-methoxypyridin-3-yl)methyl]benzenesulfonamide] here?
Its value is 90% of control.
